In article PMC13198257, “An aerosolized dual-action autotaxin inhibitor-PPARγ agonist for the treatment of pulmonary fibrosis” (Cell Reports Medicine, 2026):

What was measured:
[1] = test system: BLM-induced pulmonary fibrosis; assay: BLM-induced pulmonary fibrosis model, inhaled drug; type: in vivo, C57Bl/6 mice
Excerpt: BLM-induced pulmonary fibrosis was induced via the oropharyngeal aspiration of BLM (0.8 U/Kg).[54]^,[55]^,[141] The dose and route of administration have been selected following extensive local testing to minimise lethality while preserving a solid and reproducible fibrotic profile. Readout assays include weight and overall health status, pulmonary oedema and inflammation, collagen levels determination (soluble in BALFs, Q-RT-PCR and histology in lung tissue), lung histology with specialised stainings (Fast green/picrosirius red), as well as the measurement of respiratory functions (flexiVent, SQIREQ); a detailed protocol is publicly available at protocols.io.
Drug inhalation of compound 5 and EL244 to conscious, softly restrained mice was performed using the inExpose system (Scireq).[55] Compound 5 and EL244 were diluted in Kolliphor (15% and 10%, respectively) to final concentrations of 6.5 and 9.02 mg/mL, respectively. Volumes of 1 mL (for 5) and 0.6 mL (for EL244) were aerosolized over 10 and 15 min, respectively in groups of 6 mice, corresponding to a final estimated dose of 15mg/Kg per mouse. Control groups received an aerosolized solution of Kolliphor (10–15%) in saline.

PPARγ LBD = target: T1, PPARγ LBD (Homo sapiens, UniProt P37231); assay: Isothermal titration calorimetry (ITC); type: binding; conditions: for Kd: PPARγ LBD, 25°C
T1 construct: using recombinant PPARγ LBD protein dissolved in a buffer; made in house
T1 sequence (P37231 238-503 limits assumed): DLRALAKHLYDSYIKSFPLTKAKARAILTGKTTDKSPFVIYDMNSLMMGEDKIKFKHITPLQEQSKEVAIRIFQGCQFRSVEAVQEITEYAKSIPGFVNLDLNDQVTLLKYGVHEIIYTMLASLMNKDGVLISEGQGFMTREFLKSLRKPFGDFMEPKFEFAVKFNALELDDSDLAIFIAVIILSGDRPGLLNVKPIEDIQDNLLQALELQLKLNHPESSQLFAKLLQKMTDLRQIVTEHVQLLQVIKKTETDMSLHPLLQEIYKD
Procedure: ITC was performed[49] on a TA Instruments Affinity ITC (TA Instruments, New Castle, Delaware, USA), using recombinant PPARγ LBD protein dissolved in a buffer containing 25 mM HEPES, 150 mM KF, 5 mM DTT, 10% w/v glycerol and 1% DMSO at pH 7.5. […] The titration was performed at 25°C with a stirring rate of 75 rpm. An interval of 300 s was maintained between injections. ITC raw data were analyzed with the NanoAnalyze software package (version 3.7.5). An independent binding model was used to fit the reaction enthalpy (ΔH), binding affinity constant (KD), and stoichiometry (n). Free energy change (ΔG) was calculated with the equation ΔG = −RT ln K and the entropy (ΔS) was calculated with the equation ΔG = ΔH−TΔS.

[2] = test system: BLM-induced fibrotic mouse PCLSs; assay: Fibrotic mouse precision-cut lung slices (PCLS); type: cell-based; conditions: 30 μΜ, 72 h
Procedure: Fourteen days after administration, mice were euthanized and lungs were perfused with PBS. Lungs were subsequently inflated through the trachea with pre-warmed (40-42 °C) low melting-point agarose. Following agarose solidification, the left lateral lobe was excised and sectioned into 300μm-thick slices using a vibratome machine. Lung slices were placed in 12- or 24-well culture plates containing complete DMEM supplemented with 1% penicillin/streptomycin, and 0.1% amphotericin B, and maintained at 37 °C, 5% CO2 and ≥95% relative humidity. After an overnight equilibration period, slices were treated with either GLPG-1690 (30μM) or compound 5 (30μM) for 72 h. Culture medium was refreshed every 24 h throughout the treatment period. For downstream gene expression analysis, three slices were pooled per sample for RNA extraction. Control PCLS were generated from saline-treated mice. […] Fluorophore-conjugated secondary antibody (1:500) was applied for 1 h at room temperature, and nuclei were counterstained with DAPI. Brightfield and fluorescence imaging were performed using the Olympus VS200 slide scanner.

[3] = Cytotoxicity in HepG2 hepatocytes; type: cell-based; conditions: human, HepG2 cells
[4] = AMP membrane permeability; type: in vitro ADME; conditions: 10 μΜ
[5] = PK of EL244: plasma and lung levels after i.p. or inhaled administration; type: in vivo, mice
[6] = inhaled 15 mg/kg b.i.d., therapeutic mode from 7 days post-BLM
[7] = inhaled 15 mg/kg o.d., prophylactic mode
[8] = inhaled 15 mg/kg o.d., therapeutic mode from day 7 post-BLM

With O=C1NC(=O)C(Cc2ccc(OCCN3CCN(C(=O)OCc4cc(Cl)cc(Cl)c4)CC3)cc2)S1 (centres unmarked) [Compound 5, 3,5-dichlorobenzyl4-(2-(4-((2,4-dioxothiazolidin-5-yl)methyl)phenoxy)ethyl)piperazine-1-carboxylate] the BALF inflammatory cells [1, 6] was “decreased inflammatory cells”, the “BALF total protein (vascular leak, pulmonary edema)” value [1, 6] was “decreased total protein levels” and the “Decrease of BALF soluble collagen” value [1, 6] was “did not reach statistical significance”. The “Decrease of lung tissue Col1a1 mRNA” value [1, 6] was “did not reach statistical significance”, the “Histology (H&E, fast green/Sirius red)” value [1, 6] was “fewer fibrotic regions and decreased collagen deposition” and the “Respiratory functions (Cst, Crs, A)” value [1, 6] was “efficiently attenuated the BLM-induced impairment of respiratory functions”. For the same compound, the “Thermodynamics of binding to PPARγ-LBD” value (PPARγ LBD) was “entropy-driven”, the Kd (PPARγ LBD) was 0.6 µM and the “Col1a1 mRNA expression” value [2] was “decreasing”. The “Fn1 mRNA expression” value [2] was “decreasing”, the “Lung architecture, fibrotic lesions” value [2] was “improved the lung architecture” and the CC50 [3] was 90.3 µM. The AMP [4] was 3.7e-06 cm/s.
With O=C1NC(=O)C(Cc2ccc(OCCC3CCN(C(=O)OCc4cc(Cl)cc(Cl)c4)CC3)cc2)S1 (centres unmarked) [EL244, 3,5-dichlorobenzyl 4-(2-(4-((2,4-dioxothiazolidin-5-yl)methyl)phenoxy)ethyl)piperidine-1-carboxylate] the “PPARγ target gene mRNA in lung tissue (RT-qPCR)” value ([1]; BLM mice, inhaled EL244) was “marginal increases”, the BALF soluble collagen [1, 7] was “significantly reduced” and the Histology [1, 7] was “attenuated collagen deposition and reduced fibrotic regions”. The “Inflammation (BALF inflammatory cells)” value [1, 7] was “markedly reduced”, the “Lung tissue Col1a1 mRNA” value [1, 7] was “significantly reduced” and the “Pulmonary edema (BALF total protein)” value [1, 7] was “markedly reduced”. The Respiratory functions ([1]; inhaled 15 mg/kg o.d., prophylactic mode, 15 days from one day before BLM) was “significantly improved respiratory functions”, the BALF soluble collagen [1, 8] was “significantly reducing” and the “Effect on inflammation (BALF inflammatory cells)” value [1, 8] was “did not reach statistical significance”. The Histopathology [1, 8] was “reduced collagen deposition and fewer and smaller fibrotic regions”, the “Lung tissue Col1a1 expression” value [1, 8] was “significantly reducing” and the Respiratory functions [1, 8] was “significantly restored all assessed respiratory functions”. For the same compound, the “Vascular permeability (BALF total protein)” value [1, 8] was “reduced vascular permeability”, the “Thermodynamics of binding to PPARγ-LBD” value (PPARγ LBD) was “enthalpy-driven” and the Kd (PPARγ LBD) was 1.3 µM. For the same compound, the CC50 [3] was 81.2 µM, the Plasma concentration ([5]; i.p. 30 mg/Kg, 3 h) was ~35 μΜ and the “Clearance rate from the lung and absorption in the systemic circulation” value ([5]; inhaled 15 mg/kg) was “low”. The “Retention in the lung” value ([5]; inhaled 15 mg/kg) was “highly retained in the lung”, the concentration at 1 h ([5]; mouse, plasma, ip, i.p. 30 mg/Kg, 1 hour) was 40 µM and the concentration at 9 h ([5]; mouse, plasma, ip, i.p. 30 mg/Kg, 9 h post-dose) was 15 µM. For the same compound, the AMP [4] was 8e-07 cm/s.
